Patent US20260152504A1, “PYRIMIDINE SGC STIMULATORS” (Tisento Therapeutics Inc., priority 2022, published 2026)

Target: T1, sGC (Rattus norvegicus, UniProt P20595)
T1 construct: Rat primary neurons were isolated from timed-pregnant female Sprague-Dawley (SD) rats; endogenous in cells; host or cells: rat primary neurons (Sprague-Dawley)
T1 sequence (P20595 1-619): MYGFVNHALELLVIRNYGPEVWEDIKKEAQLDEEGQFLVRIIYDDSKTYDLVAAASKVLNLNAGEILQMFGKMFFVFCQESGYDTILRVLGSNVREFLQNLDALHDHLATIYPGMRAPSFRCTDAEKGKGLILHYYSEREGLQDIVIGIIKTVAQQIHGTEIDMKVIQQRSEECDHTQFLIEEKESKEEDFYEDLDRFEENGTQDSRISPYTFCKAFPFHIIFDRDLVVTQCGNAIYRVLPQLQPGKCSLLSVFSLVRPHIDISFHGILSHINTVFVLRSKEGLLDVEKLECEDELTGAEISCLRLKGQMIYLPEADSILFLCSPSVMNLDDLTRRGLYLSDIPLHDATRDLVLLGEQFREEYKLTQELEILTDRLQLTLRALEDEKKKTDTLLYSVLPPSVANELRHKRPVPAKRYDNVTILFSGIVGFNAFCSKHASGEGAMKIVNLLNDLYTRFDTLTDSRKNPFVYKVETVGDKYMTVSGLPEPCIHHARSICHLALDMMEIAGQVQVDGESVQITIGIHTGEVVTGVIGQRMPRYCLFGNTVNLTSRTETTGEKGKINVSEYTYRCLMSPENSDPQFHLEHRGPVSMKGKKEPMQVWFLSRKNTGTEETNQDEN
T1 sequence (P19686 1-690 partner): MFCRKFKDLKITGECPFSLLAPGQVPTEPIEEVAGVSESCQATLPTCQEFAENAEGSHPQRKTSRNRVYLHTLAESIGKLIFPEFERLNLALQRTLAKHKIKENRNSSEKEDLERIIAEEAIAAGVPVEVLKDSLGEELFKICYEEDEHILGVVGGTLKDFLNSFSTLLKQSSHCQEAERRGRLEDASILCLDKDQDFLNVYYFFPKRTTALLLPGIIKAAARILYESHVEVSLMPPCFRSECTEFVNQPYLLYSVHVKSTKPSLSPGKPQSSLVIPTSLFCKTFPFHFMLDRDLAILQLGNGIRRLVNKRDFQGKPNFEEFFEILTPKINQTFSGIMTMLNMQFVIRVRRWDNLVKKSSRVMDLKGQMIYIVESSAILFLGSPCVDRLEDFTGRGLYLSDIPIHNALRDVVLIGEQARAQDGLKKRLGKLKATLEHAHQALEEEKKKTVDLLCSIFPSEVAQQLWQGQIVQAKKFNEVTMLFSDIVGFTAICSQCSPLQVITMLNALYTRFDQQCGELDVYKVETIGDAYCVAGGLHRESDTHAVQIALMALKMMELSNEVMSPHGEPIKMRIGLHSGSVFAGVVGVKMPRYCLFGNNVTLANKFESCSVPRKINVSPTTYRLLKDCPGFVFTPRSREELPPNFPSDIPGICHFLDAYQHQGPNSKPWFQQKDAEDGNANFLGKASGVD
Experiment: cGMP measurement in rat primary neurons (neuronal-based cell assay)
Details: rat primary neurons (Sprague-Dawley); 0.5 mM IBMX; test compound with fixed DETA (Diethylenetriamine NONOate); 20 min at 37° C.; cGMP by CatchPoint kit; read-out: sGC Neuron EC50
Experimental: Example 2: cGMP Measurement in Rat Primary Neurons
Rat primary neurons were isolated from timed-pregnant female Sprague-Dawley (SD) rats, washed once with HBSS with calcium and magnesium and incubated with a solution containing 0.5 mM 3-isobutyl-1-methylxanthine (IBMX) in HBSS (80 μL/well) at 37° C. for 15 min. Next, a 5× stock […] of test compound with a fixed concentration of DETA (Diethylenetriamine NONOate) was added to the wells to make x nM concentration for test compound solutions and a 30 µM concentration for DETA solution, where x was 1 of the following final concentrations: 0.029, 0.114, 0.460, 1.83, 7.32, 29.29, 117.2, 468.8, 1875, 7500 and 30,000 nM. Then, the cells were incubated for 20 min at 37° C. At the end of incubation, 100 μL lysis buffer (Molecular Devices) was added to cells. CatchPoint™ Cyclic-GMP Fluorescent Assay Kit was used with Molecular Devices' ID3 multi-mode plate reading. Sample cGMP concentrations were extrapolated from standard curve using Softmax Pro 7 Software. A well-characterized, potent sGC stimulator was included in all assay runs and used as a positive control.
Test compound (“agonist”) concentrations vs extrapolated cGMP concentrations (“response”) were plotted and analyzed using GraphPad Prism version 9.4.1. Curve fit was used for each dataset; non-linear log(agonist) vs. response-variable slope (four parameters). The EC50 is interpolated from the curve fit and is defined as the concentration at which the compound elicits 50% of its maximal response. When the experiment is carried out more than two times, the geometric mean is reported, otherwise the arithmetic mean is shown. To increase the accuracy of the EC50 calculations, top and bottom parameters were constrained when consistent with the observed data in a given assay run. For instance, in assay runs where the cGMP response values in the absence of test article were consistent across plates, an average across all of these wells was used as a lower constraint in the calculations. In assay runs where the maximal cGMP responses were consistent with that of the positive control, a top constraint equal to the maximal cGMP response of the positive control was applied. If there was significant variability in cGMP response in no compound wells or variation in maximal responses across plates, no constraints were imposed.

For `N#Cc1cn2cc(-c3ncc(F)c(O)n3)nc(Cc3cc(F)c(F)cc3F)c2n1` [Compound I-3, 6-(5-fluoro-4-hydroxypyrimidin-2-yl)-8-(2,4,5-trifluorobenzyl)imidazo[1,2-a]pyrazine-2-carbonitrile], the EC50 was at most 100 nM.
`Cc1cc(C#N)c(F)cc1Cc1nc(-c2ncc(F)c(O)n2)cn2c(F)cnc12` [Compound I-4, 2-fluoro-4-((3-fluoro-6-(5-fluoro-4-hydroxypyrimidin-2-yl)imidazo[1,2-a]pyrazin-8-yl)methyl)-5-methylbenzonitrile] gave an EC50 of over 5000 nM.
For `Cc1cc(F)c(Cc2nc(-c3nc(O)c(F)c(CF)n3)cn3ncnc23)cc1F` [Compound I-5, 2-(8-(2,5-difluoro-4-methylbenzyl)-[1,2,4]triazolo[1,5-a]pyrazin-6-yl)-5-fluoro-6-(fluoromethyl)pyrimidin-4-ol], the EC50 was 1000 to 5000 nM.
`Cc1cnc2c(Cc3cc(F)c(Cl)cc3F)nc(-c3nc(O)c(F)c(O)n3)cn12` [Compound I-6, 2-(8-(4-chloro-2,5-difluorobenzyl)-3-methylimidazo[1,2-a]pyrazin-6-yl)-5-fluoropyrimidine-4,6-diol] was tested, and the EC50 was over 5000 nM.
`COc1cnc2c(Cc3cc(F)c(C)cc3F)nc(-c3ncc(C)c(O)n3)cn12` [Compound I-7, 2-(8-(2,5-difluoro-4-methylbenzyl)-3-methoxyimidazo[1,2-a]pyrazin-6-yl)-5-methylpyrimidin-4-ol] gave an EC50 of over 5000 nM.
`CC(=O)c1cnc2c(Cc3cc(F)ccc3F)nc(-c3nc(C)c(F)c(O)n3)cn12` [Compound I-8, 1-(8-(2,5-difluorobenzyl)-6-(5-fluoro-4-hydroxy-6-methylpyrimidin-2-yl)imidazo[1,2-a]pyrazin-3-yl)ethan-1-one] showed an EC50 of over 5000 nM.
Compound `CC(=O)c1ccc(Cc2nc(-c3ncc(F)c(O)n3)cn3c(Cl)cnc23)c(F)c1` [Compound I-9, 1-(4-((3-chloro-6-(5-fluoro-4-hydroxypyrimidin-2-yl)imidazo[1,2-a]pyrazin-8-yl)methyl)-3-fluorophenyl)ethan-1-one] has an EC50 of over 5000 nM.
With `CSc1cnc2c(Cc3cc(F)c(C)cc3F)nc(-c3nc(O)c(C)c(Br)n3)cn12` [Compound I-12, 6-bromo-2-(8-(2,5-difluoro-4-methylbenzyl)-3-(methylthio)imidazo[1,2-a]pyrazin-6-yl)-5-methylpyrimidin-4-ol] the EC50 was over 5000 nM.
`Cc1cc(F)c(Cc2nc(-c3ncc(C#N)c(O)n3)cn3c(F)cnc23)cc1F` [Compound I-17, 2-(8-(2,5-difluoro-4-methylbenzyl)-3-fluoroimidazo[1,2-a]pyrazin-6-yl)-4-hydroxypyrimidine-5-carbonitrile] gave an EC50 of at most 100 nM.
With `COc1c(O)nc(-c2cn3ccnc3c(Cc3cc(F)c(C)cc3F)n2)nc1CF` [Compound I-21, 2-(8-(2,5-difluoro-4-methylbenzyl)imidazo[1,2-a]pyrazin-6-yl)-6-(fluoromethyl)-5-methoxypyrimidin-4-ol] the EC50 was 100 to 1000 nM.
`COCc1nc(-c2cn3ccnc3c(Cc3cc(F)c(C)cc3F)n2)nc(O)c1F` [Compound I-22, 2-(8-(2,5-difluoro-4-methylbenzyl)imidazo[1,2-a]pyrazin-6-yl)-5-fluoro-6-(methoxymethyl)pyrimidin-4-ol] gave an EC50 of 100 to 1000 nM.
For `CC(=O)c1cnc(-c2cn3ccnc3c(Cc3cc(F)c(C)cc3F)n2)nc1O` [Compound I-24, 1-(2-(8-(2,5-difluoro-4-methylbenzyl)imidazo[1,2-a]pyrazin-6-yl)-4-hydroxypyrimidin-5-yl)ethan-1-one], the EC50 was 100 to 1000 nM.
Work on `Cc1cc(F)c(Cc2nc(-c3ncc(CO)c(O)n3)cn3ccnc23)cc1F` [Compound I-25, 2-(8-(2,5-difluoro-4-methylbenzyl)imidazo[1,2-a]pyrazin-6-yl)-5-(hydroxymethyl)pyrimidin-4-ol] yielded an EC50 of 100 to 1000 nM.
With `Cc1cc(F)c(Cc2nc(-c3nc(O)cc(CCO)n3)cn3ccnc23)cc1F` [Compound I-26, 2-(8-(2,5-difluoro-4-methylbenzyl)imidazo[1,2-a]pyrazin-6-yl)-6-(2-hydroxyethyl)pyrimidin-4-ol] the EC50 was over 5000 nM.
Work on `COCc1nc(-c2cn3ccnc3c(Cc3cc(F)c(C)cc3F)n2)nc(O)c1OC` [Compound I-27, 2-(8-(2,5-difluoro-4-methylbenzyl)imidazo[1,2-a]pyrazin-6-yl)-5-methoxy-6-(methoxymethyl)pyrimidin-4-ol] yielded an EC50 of over 5000 nM.
`Cc1cc(F)c(Cc2nc(-c3ncc(C(C)O)c(O)n3)cn3ccnc23)cc1F` (centres unmarked) [Compound I-28, 2-(8-(2,5-difluoro-4-methylbenzyl)imidazo[1,2-a]pyrazin-6-yl)-5-(1-hydroxyethyl)pyrimidin-4-ol] showed an EC50 of 100 to 1000 nM.
Compound `COc1cnc2c(Cc3cc(F)c(C)cc3F)nc(-c3ncc(Cl)c(O)n3)cn12` [Compound I-29, 5-chloro-2-{8-[(2,5-difluoro-4-methylphenyl)methyl]-3-methoxyimidazo[1,2-a]pyrazin-6-yl}pyrimidin-4-ol] has an EC50 of 100 to 1000 nM.
`CCc1cc(O)nc(-c2cn3ccnc3c(Cc3cc(F)c(C)cc3F)n2)n1` [Compound I-30, 2-{8-[(2,5-difluoro-4-methylphenyl)methyl]imidazo[1,2-a]pyrazin-6-yl}-6-ethylpyrimidin-4-ol] was tested, and the EC50 was 1000 to 5000 nM.
`Cc1nc(-c2cn3c(C(C)O)cnc3c(Cc3cc(F)ccc3F)n2)nc(O)c1F` (centres unmarked) [Compound I-31, 2-(8-(2,5-difluorobenzyl)-3-(1-hydroxyethyl)imidazo[1,2-a]pyrazin-6-yl)-5-fluoro-6-methylpyrimidin-4-ol] showed an EC50 of over 5000 nM.
In the case of `COc1cnc2c(Cc3cc(F)c(C#N)cc3C)nc(-c3ncc(F)c(O)n3)cn12` [Compound I-32, 2-fluoro-4-((6-(5-fluoro-4-hydroxypyrimidin-2-yl)-3-methoxyimidazo[1,2-a]pyrazin-8-yl)methyl)-5-methylbenzonitrile], the EC50 is reported as over 5000 nM.
`Cc1cc(F)c(Cc2nc(-c3ncc(F)c(O)n3)cn3c(CO)cnc23)cc1F` [Compound I-35, 2-(8-(2,5-difluoro-4-methylbenzyl)-3-(hydroxymethyl)imidazo[1,2-a]pyrazin-6-yl)-5-fluoropyrimidin-4-ol] showed an EC50 of 1000 to 5000 nM.
Compound `CCOCc1nc(-c2cn3ncnc3c(Cc3cc(F)c(C)cc3F)n2)nc(O)c1F` [Compound I-44, 2-(8-(2,5-difluoro-4-methylbenzyl)-[1,2,4]triazolo[1,5-a]pyrazin-6-yl)-6-(ethoxymethyl)-5-fluoropyrimidin-4-ol] has an EC50 of over 5000 nM.
Work on `Cc1cc(F)c(Cc2nc(-c3nc(O)c(F)c(CF)n3)cn3ccnc23)cc1F` [Compound I-45, 2-(8-(2,5-difluoro-4-methylbenzyl)imidazo[1,2-a]pyrazin-6-yl)-5-fluoro-6-(fluoromethyl)pyrimidin-4-ol] yielded an EC50 of 100 to 1000 nM.
